Test [1] concerns the target T1, purified and unphosphorylated T315I Abl kinase domain (ABL_T315I_0P) (Mus musculus, UniProt P00520, T315I).
T1 construct: The c-Abl T3151 KD (kinase domain) was purified as follows; Met-Ser-Leu (vector-derived residues) (N); made in house; host or cells: E. coli BL21(DE3) strains (Codon+RIL, or pSA0145 for the lambda phosphatase co-expression plasmid)
T1 sequence (P00520 242-493 T315I limits assumed): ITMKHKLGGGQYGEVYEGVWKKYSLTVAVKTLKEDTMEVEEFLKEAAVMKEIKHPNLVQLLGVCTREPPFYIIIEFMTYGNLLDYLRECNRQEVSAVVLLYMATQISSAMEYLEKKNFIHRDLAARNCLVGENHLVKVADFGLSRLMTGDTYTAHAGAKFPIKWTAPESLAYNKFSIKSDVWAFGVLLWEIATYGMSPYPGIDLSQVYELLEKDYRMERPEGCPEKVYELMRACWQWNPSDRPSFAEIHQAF
Briefly: c-Abl T315I (unphosphorylated kinase domain) pyruvate kinase/lactate dehydrogenase coupled enzyme assay. The class given is biochemical. Conditions: 10 μM ATP.

A further test addresses T2, ABL P210WT BAF3 cells (Homo sapiens, UniProt P00519).
T2 construct: ABL P210WT BAF3; fused on or other part: P11274 (Breakpoint cluster region protein)
The test is described as follows: 96-well XTT cell survival assay, BaF3 ABL P210WT. The conditions noted are these: ABL P210 WT, 72 hours, read-out: CELL BIO ABL P210WT BAF3 XTT (IC50). The class given is cell-based. Summed up:
(§1)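 Ba/F3 cells in RPMI 1640 with 10% FBS (IL-3 medium for maintenance) were seeded at 5000-8000 cells/well and exposed to compound dilutions in duplicate for 72 h at 37° C. Viability read by XTT/PMS, absorbance 405 nm minus 650 nm after 2-6 h.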

The target in a further test is T3, ABL T315I BAF3 cells (Homo sapiens, UniProt P00519, T315I, cells depend on it).
T3 construct: ABL T315I BAF3; fused on or other part: P11274 (Breakpoint cluster region protein)
The test is described as follows: 96-well XTT cell survival assay, BaF3 ABL T315I. In kind it is cell-based. The conditions noted are these: 72 hours, read-out: CELL BIO ABL T315I BAF3 XTT (IC50). Summed up:
as §1
In general terms: Tetrazolium assays rely on reduction of a dye to a coloured formazan, in cell work by metabolically active cells.

Bounds are passed on as bounds.

For `OC(c1cncc(-c2cnc3[nH]cc(-c4ccc(F)cc4)c3c2Cl)c1)c1ncccc1F` (stereo not drawn) [{5-[4-Chloro-3-(4-fluoro-phenyl)-1H-pyrrolo[2,3-b]pyridin-5-yl]-pyridin-3-yl}-(3-fluoro-pyridin-2-yl)-methanol], the “ABL_T315I_0P (IC50)” value in test [1] was “C (0.1-0.01 μM)”. For the same compound, the GI50 at ABL P210WT BAF3 cells and at ABL T315I BAF3 cells was greater than 1000 nM throughout.
On to `COc1ccccc1-c1c[nH]c2ncc(Br)c(N(C)CCO)c12` [2-{[5-Bromo-3-(2-methoxy-phenyl)-1H-pyrrolo[2,3-b]pyridin-4-yl]-methyl-amino}-ethanol], for which the “ABL_T315I_0P (IC50)” value in test [1] is “C (0.1-0.01 μM)”. For the same compound, the GI50 on ABL P210WT BAF3 cells and at ABL T315I BAF3 cells was greater than 1000 nM in each case.
As to `COc1ncccc1-c1c[nH]c2ncc(-c3cnc(N)c(C(=O)N(C)C)c3)c(Cl)c12` [2-Amino-5-[4-chloro-3-(2-methoxy-pyridin-3-yl)-1H-pyrrolo[2,3-b]pyridin-5-yl]-N,N-dimethyl-nicotinamide], the “ABL_T315I_0P (IC50)” value in test [1] was “D (<0.01 μM)”. Moreover, the GI50 on ABL P210WT BAF3 cells and on ABL T315I BAF3 cells was 10 to 100 nM each time.
Turning to `OC(c1cncc(-c2cnc3[nH]cc(-c4cccc(F)c4F)c3c2Cl)c1)c1ncccc1F` (stereo not drawn) [{5-[4-Chloro-3-(2,3-difluoro-phenyl)-1H-pyrrolo[2,3-b]pyridin-5-yl]-pyridin-3-yl}-(3-fluoro-pyridin-2-yl)-methanol], the “ABL_T315I_0P (IC50)” value in test [1] was “D (<0.01 μM)”. Also, the GI50 on ABL P210WT BAF3 cells and on ABL T315I BAF3 cells was 100 to 1000 nM throughout.
Take `Nc1ncc(-c2cnc3[nH]cc(-c4cc(F)ccc4F)c3c2Cl)cc1C(=O)N1CCCC1CO` (stereo not drawn) [{2-Amino-5-[4-chloro-3-(2,5-difluoro-phenyl)-1H-pyrrolo[2,3-b]pyridin-5-yl]-pyridin-3-yl}-(2-hydroxymethyl-pyrrolidin-1-yl)-methanone]: the “ABL_T315I_0P (IC50)” value in test [1] is given as “D (<0.01 μM)”. Also, the GI50 at ABL P210WT BAF3 cells and on ABL T315I BAF3 cells was 100 to 1000 nM each time.
As to `CN(C)C(=O)c1cc(-c2cnc3[nH]cc(-c4cc[nH]n4)c3c2Cl)cnc1N` [2-Amino-5-[4-chloro-3-(1H-pyrazol-3-yl)-1H-pyrrolo[2,3-b]pyridin-5-yl]-N,N-dimethyl-nicotinamide], in test [1], the “ABL_T315I_0P (IC50)” value is “C (0.1-0.01 μM)”. Also, the GI50 at ABL P210WT BAF3 cells and on ABL T315I BAF3 cells was greater than 1000 nM throughout.
With `COc1ccccc1-c1c[nH]c2ncc(-c3cnc(N)c(C(=O)N(C)C)c3)c(Cl)c12` [2-Amino-5-[4-chloro-3-(2-methoxy-phenyl)-1H-pyrrolo[2,3-b]pyridin-5-yl]-N,N-dimethyl-nicotinamide], in test [1], the “ABL_T315I_0P (IC50)” value is “D (<0.01 μM)”. In addition, the GI50 at ABL P210WT BAF3 cells and on ABL T315I BAF3 cells was less than 10 nM throughout.
Regarding `COc1cc(F)c(F)cc1-c1c[nH]c2ncc(-c3cnc(N)c(C(=O)N(C)C)c3)c(Cl)c12` [2-Amino-5-[4-chloro-3-(4,5-difluoro-2-methoxy-phenyl)-1H-pyrrolo[2,3-b]pyridin-5-yl]-N,N-dimethyl-nicotinamide], the “ABL_T315I_0P (IC50)” value in test [1] is on record as “D (<0.01 μM)”. Further, the GI50 at ABL P210WT BAF3 cells and at ABL T315I BAF3 cells was 10 to 100 nM in each case.
As to `COc1ccncc1-c1c[nH]c2ncc(-c3cncc(C(O)C(=O)N(C)C)c3)c(Cl)c12` (stereo not drawn) [2-{5-[4-Chloro-3-(4-methoxy-pyridin-3-yl)-1H-pyrrolo[2,3-b]pyridin-5-yl]-pyridin-3-yl}-2-hydroxy-N,N-dimethyl-acetamide], the “ABL_T315I_0P (IC50)” value in test [1] is “D (<0.01 μM)”. For the same compound, the GI50 on ABL P210WT BAF3 cells and at ABL T315I BAF3 cells was 100 to 1000 nM each time.
As for `CN(C)C(=O)c1cc(-c2cnc3[nH]cc(-c4cccc(F)c4)c3c2Cl)cnc1N` [2-Amino-5-[4-chloro-3-(3-fluoro-phenyl)-1H-pyrrolo[2,3-b]pyridin-5-yl]-N,N-dimethyl-nicotinamide], the “ABL_T315I_0P (IC50)” value in test [1] is recorded as “D (<0.01 μM)”. Moreover, the GI50 on ABL P210WT BAF3 cells and at ABL T315I BAF3 cells was 100 to 1000 nM throughout.
